Experiments:
[1] = DPPH radical scavenging assay; conditions: for IC50: half-maximal inhibitory concentration to DPPH radical, means ± SD (n = 3); for DPPH Inhibition Ratio (%): at a concentration of 500 μM;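 as to all read-outs here: compounds in EtOH mixed 1:1 with 200 µM DPPH in EtOH in 96-well plates, kept dark 15 min at room temperature, with blank control and ascorbic acid as reference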
Description: (§1) The DPPH assay was conducted as follows: the tested compound (final concentration: 0.2–1000 μM in EtOH, 100 μL) and DPPH solution (200 μM in EtOH, 100 μL) were sequentially added to 96-well plates at room temperature, then hid from the light for 15 min. The blank control and positive control (ascorbic acid) were set simultaneously. OD values at 517 nm were detected with a microplate reader. ABTS^+ assay was carried out as follows: firstly, the ABTS^+ solution was prepared using the procedure in our previous paper [19]. Then, the tested compound (final concentration: 0.2–1000 μM in EtOH, 10 μL) and ABTS^+ solution (200 μL) were added to 96-well plates at room temperature in an orderly manner, and then hided from light for 6–8 min. The blank control and positive control (trolox) were set synchronously. OD values at 405 nm were then detected with a microplate reader. All the reactions were set up three replicates.

[2] = ABTS+ radical scavenging assay; conditions: for IC50: half-maximal inhibitory concentration to ABTS+ radical, means ± SD (n = 3); for ABTS+ Inhibition Ratio (%): at a concentration of 500 μM;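 as to all read-outs here: ABTS+ radical solution incubated with compound in EtOH in 96-well plates for 6–8 min in the dark at room temperature, versus blank control, trolox as reference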
Description: as §1

α-glucosidase = experiment: α-Glucosidase inhibitory activity (PNPG substrate); type: biochemical; conditions: means ± SD (n = 3)
Description: Initially, 96-well plates with the following ingredients were added in a proper order: testing compound (50 μM), α-glucosidase solution (0.025 U/mL), buffer, and the zymolyte (1 mM), and kept at 37 °C for 50 min. […] All the reactions were set up with three replicates. OD values at 405 nm were recorded with a microplate reader.

| IC50 [1] | IC50 [2] | IC50 (α-glucosidase) | Compound | DPPH Inhibition Ratio (%) [1] | ABTS+ Inhibition Ratio (%) [2] |
| --- | --- | --- | --- | --- | --- |
| 312 ± 10.8 µM | 84.8 ± 0.4 µM | 1960 ± 60 nM | O=C(O[C@@H]1O[C@@H]2COC(=O)c3cc(O)c(O)c(O)c3-c3c(cc(O)c(O)c3O)C(=O)O[C@H]2[C@H](O)[C@H]1O)c1cc(O)c(O)c(O)c1 [Compound 4, 1-O-galloyl-4,6-O-(S)-hexahydroxydiphenoyl-β-D-glucopyranose] |  |  |
| 941 ± 191 µM | 106 ± 0.5 µM | 1740 ± 30 nM | O=C(O[C@H]1C(O)O[C@@H]2COC(=O)c3cc(O)c(O)c(O)c3-c3c(cc(O)c(O)c3O)C(=O)O[C@H]2[C@@H]1O)c1cc(O)c(O)c(O)c1 (stereo partly drawn) [Compound 3, 2-O-galloyl-4,6-O-(S)-hexahydroxydiphenoyl-β-D-glucopyranose] |  |  |
| 217 ± 27.4 µM | 99.7 ± 1.4 µM |  | O=C(OC[C@H]1O[C@@H](OC(=O)c2cc(O)c(O)c(O)c2)[C@H](O)[C@@H](O)[C@@H]1O)c1cc(O)c(O)c(O)c1 [Compound 6, 1,6-di-O-galloyl-β-D-glucopyranose] |  |  |
| 548 ± 61.5 µM | 307 ± 3.3 µM |  | 1-(3′,4′-dihydroxycinnamoyl) cyclopentane-2,3-diol [Compound 30] |  |  |
| 502 ± 14 µM | 400 ± 9.6 µM |  | O=C(O)/C=C\c1ccc(O[C@@H]2O[C@H](COC(=O)c3cc(O)c(O)c(O)c3)[C@@H](O)[C@H](O)[C@H]2O)cc1 [Compound 2, 4-O-(6′-O-galloyl-β-D-glucopyranosyl)-cis-p-coumaric acid] |  |  |
| 237 ± 22.6 µM | 202 ± 3.4 µM |  | O=C(O)c1cc(O)c(O)c(O)c1 [Compound 19, gallic acid] |  |  |
| 1140 ± 207 µM | 206 ± 2.6 µM |  | O=c1c(O)c(-c2ccc(O)c(O)c2)oc2cc(O)cc(O)c12 [Compound 16, quercetin] |  |  |
|  | 405 ± 6.2 µM |  | Cc1c(C)c2c(c(C)c1O)CCC(C)(C(=O)O)O2 (centres unmarked) [Trolox, trolox, reference compound] |  |  |
| 532 ± 38 µM | 128.4 ± 0.9 µM | 1960 ± 50 nM | O=C(OC[C@H]1O[C@@H](OC(=O)c2cc(O)c(O)c(O)c2)[C@H](OC(=O)c2cc(O)c(O)c(O)c2)[C@@H](O)[C@@H]1O)c1cc(O)c(O)c(O)c1 [Compound 7, 1,2,6-tri-O-galloy-β-D-glucopyranose] |  |  |
| 339 ± 24.7 µM | 111 ± 2.1 µM | 1770 ± 50 nM | O=C(O[C@@H]1O[C@@H]2COC(=O)c3cc(O)c(O)c4oc5c(O)c(O)cc(c5c34)C(=O)O[C@H]2[C@H](O)[C@H]1O)c1cc(O)c(O)c(O)c1 [Compound 1, 1-O-galloyl-4,6-tetrahydroxydibenzofurandicarboxyl-β-D-glucopyranose] |  |  |
| 2620 ± 500 µM | 480.9 ± 4.1 µM |  | C[C@@H]1O[C@@H](Oc2c(-c3ccc(O)c(O)c3)oc3cc(O)cc(O)c3c2=O)[C@H](O[C@@H]2O[C@H](CO)[C@@H](O)[C@H](O)[C@H]2O)[C@H](O)[C@H]1O [Compound 17, quercetin 3-(2″-β-D-glucosyl)-α-L-rhamnopyranoside] |  |  |
| 156 ± 26.1 µM | 77.2 ± 0.7 µM | 2010 ± 20 nM | O=C(OC[C@H]1O[C@@H](OC(=O)c2cc(O)c(O)c(O)c2)[C@H](O)[C@@H](O)[C@@H]1OC(=O)c1cc(O)c(O)c(O)c1)c1cc(O)c(O)c(O)c1 [Compound 8, 1,4,6-tri-O-galloyl-β-D-glucopyranose] |  |  |
| 900 ± 63.4 µM | 266 ± 5.4 µM |  | C[C@@H]1O[C@@H](OC[C@H]2O[C@@H](Oc3c(-c4ccc(O)c(O)c4)oc4cc(O)cc(O)c4c3=O)[C@H](O)[C@@H](O)[C@@H]2O)[C@H](O)[C@H](O)[C@H]1O [Compound 13, rutin] |  |  |
| 299 ± 32.3 µM | 187 ± 2.7 µM |  | COC(=O)c1cc(O)c(O)c(O)c1 [Compound 23, methyl gallate] |  |  |
| 301 ± 79.6 µM | 75.6 ± 2.1 µM | 670 ± 40 nM | O=C(O[C@@H]1O[C@@H]2COC(=O)c3cc(O)c(O)c(O)c3-c3c(cc(O)c(O)c3O)C(=O)O[C@H]2[C@H](O)[C@H]1OC(=O)c1cc(O)c(O)c(O)c1)c1cc(O)c(O)c(O)c1 [Compound 5, 1,2-di-O-galloyl-4,6-O-(S)-hexahydroxydiphenoyl-β-D-glucopyranose] |  |  |
|  | 322.8 ± 0.6 µM |  | O=c1c(O[C@@H]2O[C@H](CO)[C@@H](O)[C@H](O)[C@H]2O)c(-c2ccc(O)c(O)c2)oc2cc(O)cc(O)c12 [Compound 11, quercetin 3-O-β-D-glucopyranoside] |  |  |
| 479 ± 33.8 µM | 199 ± 4.1 µM |  | O=C(O)/C=C/c1ccc(O)c(O)c1 [Compound 28, caffeic acid] |  |  |
| 1200 ± 87.7 µM |  |  | O=C1O[C@H]([C@@H](O)CO)C(O)=C1O [Ascorbic acid, ascorbic acid, reference compound] |  |  |
| 722 ± 43.2 µM | 545 ± 12.8 µM |  | O=C(/C=C/c1ccc(O)c(O)c1)O[C@@H]1CC(C(=O)O)=C[C@@H](O)[C@H]1O [Compound 27, 5-O-caffeoylshikimic acid] |  |  |

The next lines start with the compound.

| Compound | IC50 [1] | IC50 [2] | IC50 (α-glucosidase) | DPPH Inhibition Ratio (%) [1] | ABTS+ Inhibition Ratio (%) [2] |
| --- | --- | --- | --- | --- | --- |
| O=C1O[C@@H](c2ccc(O)cc2)Cc2cc(O)cc(O)c21 [Compound 32, (3R)-thunberginol C] | 3940 ± 825 µM | 560.3 ± 3.3 µM |  |  |  |
| O=c1c(O[C@@H]2O[C@H](CO)[C@H](O)[C@H](O)[C@H]2O)c(-c2ccc(O)cc2)oc2cc(O)cc(O)c12 [Compound 14, kaempferol 3-O-β-D-galactopyranoside] |  |  |  | −0.94% | 4.03% |
| O=C(C=Cc1ccc(O)cc1)OC1CC(O)(C(=O)O)CC(O)C1O (centres unmarked) [Compound 26, 5-O-(E)-p-coumaroylquinic acid] |  |  |  | 6.92% | 6.82% |
| C[C@@H]1O[C@@H](Oc2c(-c3ccc(O)cc3)oc3cc(O)cc(O)c3c2=O)[C@H](O[C@@H]2O[C@H](CO)[C@@H](O)[C@H](O)[C@H]2O)[C@H](O)[C@H]1O [Compound 18, kaempferol 3-(2″-β-D-glucosyl)-α-L-rhamnopyranoside] |  |  |  | 1.08% | 5.89% |
| C[C@@H]1O[C@@H](OC[C@H]2O[C@@H](Oc3c(-c4ccc(O)cc4)oc4cc(O)cc(O)c4c3=O)[C@H](O)[C@@H](O)[C@@H]2O)[C@H](O)[C@H](O)[C@H]1O [Compound 12, kaempferol 3-O-rutinoside] |  |  |  | 8.58% | 4.24% |
| C[C@@H]1O[C@@H](Oc2c(-c3ccc(O)cc3)oc3cc(O)cc(O)c3c2=O)[C@H](O)[C@H](O)[C@H]1O [Compound 15, kaempferol 3-O-α-L-rhamnopyranoside] |  |  |  | 1.04% | 8.00% |
| O=C(O)c1ccc(O)c(O)c1 [Compound 20, 3,4-dihydroxybenzoic acid] | 2120 ± 336 µM | 462 ± 9.3 µM |  |  |  |
| O=C(O)c1cccc(O)c1 [Compound 22, m-hydroxybenzoic acid] |  |  |  | 7.58% | 7.00% |
| O=C(/C=C/c1ccc(O)cc1)OC[C@H]1O[C@@H](Oc2c(-c3ccc(O)cc3)oc3cc(O)cc(O)c3c2=O)[C@H](O)[C@@H](O)[C@@H]1O [Compound 10, kaempferol 3-O-(6″-trans-p-coumaroyl)-β-D-glucopyranoside] |  |  |  | 6.28% | 11.55% |
| O=C(O)c1ccc(O)cc1 [Compound 21, p-hydroxybenzoic acid] |  |  |  | 3.32% | 3.21% |
| O=C(O)/C=C/c1ccc(O)cc1 [Compound 29, E-p-hydroxycinnamic acid] |  |  |  | 1.55% | 8.12% |
| O=c1c(O[C@@H]2O[C@H](CO)[C@@H](O)[C@H](O)[C@H]2O)c(-c2ccc(O)cc2)oc2cc(O)cc(O)c12 [Compound 9, kaempferol 3-O-β-D-glucopyranoside] |  |  |  | 0.97% | 0.19% |

From PMC10340768, “New Hydrolyzable Tannin with Potent Antioxidant and α-Glucosidase Inhibitory Activity from Black Tea Produced from Camellia taliensis” (Foods, 2023)
